Activity and EC50 data for 17 compounds are collected here from ChEMBL document CHEMBL5365401, “Discovery of 5-((1H-indazol-3-yl) methylene)-2-thioxoimidazolidin-4-one derivatives as a new class of AHR agonists with anti-psoriasis activity in a mouse model” (Bioorg Med Chem Lett, 2023).

Structures are written as SMILES. pEC50: −log10 of the molar value. Active and inactive are the calls of the source. No cut-off for these calls is given here.

The test system of one data set is Mus musculus. The data set can be described thus: Anti-psoriatic activity in imiquimod-induced BALB/c mouse model assessed as decrease in psoriasis-like skin lesion at 1 % administered topically. It is filed as functional, organism-based. The settings on record: Zone of skin, route top.
For the compound `C#CCN1C(=O)/C(=C/c2n[nH]c3ccccc23)NC1=S`, the result was Active.

In the next data set the target is T1, Aryl hydrocarbon receptor (Homo sapiens, UniProt P35869).
T1 sequence (P35869 whole entry): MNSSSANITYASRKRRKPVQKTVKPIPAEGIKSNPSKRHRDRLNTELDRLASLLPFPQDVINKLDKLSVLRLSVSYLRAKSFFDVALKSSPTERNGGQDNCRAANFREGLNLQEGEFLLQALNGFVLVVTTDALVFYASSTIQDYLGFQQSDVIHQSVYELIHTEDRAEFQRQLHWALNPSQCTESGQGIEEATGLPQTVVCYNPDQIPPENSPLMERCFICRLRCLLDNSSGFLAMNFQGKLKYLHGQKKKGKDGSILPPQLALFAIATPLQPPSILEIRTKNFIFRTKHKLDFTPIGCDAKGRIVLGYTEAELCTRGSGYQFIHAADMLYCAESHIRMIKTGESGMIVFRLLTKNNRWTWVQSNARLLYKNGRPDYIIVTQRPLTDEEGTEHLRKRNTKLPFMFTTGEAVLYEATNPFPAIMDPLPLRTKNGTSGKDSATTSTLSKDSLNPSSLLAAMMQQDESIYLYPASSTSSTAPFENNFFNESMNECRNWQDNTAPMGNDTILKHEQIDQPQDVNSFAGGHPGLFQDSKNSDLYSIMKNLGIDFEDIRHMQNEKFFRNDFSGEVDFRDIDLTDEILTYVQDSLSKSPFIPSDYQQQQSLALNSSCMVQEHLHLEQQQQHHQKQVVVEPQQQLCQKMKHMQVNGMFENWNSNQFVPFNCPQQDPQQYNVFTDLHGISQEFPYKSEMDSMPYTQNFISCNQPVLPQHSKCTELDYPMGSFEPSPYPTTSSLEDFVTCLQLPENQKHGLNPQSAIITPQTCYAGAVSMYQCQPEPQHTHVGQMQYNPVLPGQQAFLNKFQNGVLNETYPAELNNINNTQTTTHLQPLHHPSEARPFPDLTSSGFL
The data set can be described thus: Agonist activity at AHR in human HepG2 cells stably transfected with DRE assessed as increase in CYP1A1 mRNA expression by qPCR assay. The class given is cell-based. The settings on record: dose 0.1-10 µM.
In the case of `C#CCN1C(=O)/C(=C/c2n[nH]c3ccccc23)NC1=S`, the Activity entry was “Dose-Dependent Effect”.

For another data set, the target named is T1, Aryl hydrocarbon receptor. The data set can be described thus: Agonist activity at AHR in human HepG2 cells stably transfected with DRE assessed as increase in AHR nuclear translocation at 1 to 10 uM by Western blot analysis. The class given is cell-based. Conditions: dose 1-10 µM. In general terms: Immunoblotting shows a protein as a band on a membrane.
Turning to `C#CCN1C(=O)/C(=C/c2n[nH]c3ccccc23)NC1=S`, the Activity result was “Dose-Dependent Effect”.

The target of the next data set is T1, Aryl hydrocarbon receptor. In words: Agonist activity at AHR in human HepG2-Lucia AhR cells stably transfected with DRE by luciferase reporter assay. The class given is cell-based.
Conditions: not given
A general note: A reporter such as luciferase makes a cellular process visible.
With `CN1C(=O)/C(=C/c2cncnc2)NC1=S`, the pEC50 (usually −log10 of the EC50, conventionally taken in molar units) was less than 5.00.

For `CN1C(=O)/C(=C/c2csc3ccccc23)NC1=S`, the pEC50 is 5.74.

`Cc1ccc([N+](=O)[O-])c2c1NC(c1ccc(Br)cc1)=NO2`: the pEC50 is 5.47. This pEC50 lies 0.27 log units lower than the previous one.

`CCN1C(=O)/C(=C\c2c[nH]c3ccccc23)NC1=S` gave a pEC50 of 5.74.

Take `CN1C(=O)C(Cc2c[nH]c3ccccc23)NC1=S` (stereo not given) [NECROSTATIN]: the negative-log EC50 (pEC50) was less than 5.00.

On to `C#CCN1C(=O)/C(=C/c2n[nH]c3ccccc23)NC1=S`, for which the pEC50 is 7.82.

The compound `Cc1cc(-c2nnc3sc(-c4ccccc4Br)nn23)[nH]n1` had a pEC50 of 5.55. This pEC50 is 2.27 log units lower than that of the compound before.

Take `CC#CCN1C(=O)/C(=C/c2n[nH]c3ccccc23)NC1=S`: the pEC50 was 6.28.

The compound `CN1C(=S)NC(=O)/C1=C/c1n[nH]c2ccccc12` had a pEC50 of 5.60.

`Cc1[nH]c2ccccc2c1/C=C1\NC(=S)N(C)C1=O`: the negative-log EC50 (pEC50) was less than 5.00.

The compound `COc1cccc(OC)c1C(=O)OCc1cc(=O)n2cc(Br)ccc2n1` gave a negative logarithm of the EC50 (pEC50) of 5.23.

The compound `O=C1NC(=S)N/C1=C\c1c[nH]c2ccccc12` showed a pEC50 of less than 5.00.

In turn, `CCN1C(=O)/C(=C/c2n[nH]c3ccccc23)NC1=S` showed a pEC50 of 6.66.

Turning to `CN1C(=O)/C(=C/c2n[nH]c3ccccc23)NC1=S`, the negative-log EC50 (pEC50) is 7.31.

`O=C1NC(=O)/C(=C/c2c[nH]c3ccccc23)N1` had a pEC50 of less than 5.00.

On to `CN1C(=O)/C(=C/c2c[nH]c3ccccc23)NC1=S`, for which the negative logarithm of the EC50 (pEC50) is 6.84.

The compound `CC(C)N1C(=O)/C(=C/c2c[nH]c3ccccc23)NC1=S` showed a negative logarithm of the EC50 (pEC50) of 5.00.
